This note sets out measurements from article PMC6155272, “Chroman-4-One Derivatives Targeting Pteridine Reductase 1 and Showing Anti-Parasitic Activity” (Molecules : A Journal of Synthetic Chemistry and Natural …, 2017).

Series [1] has as its system L. infantum (MHOM/BR/1972/BH46) intracellular amastigotes. As to the kind of experiment: Activity against L. infantum intramacrophage amastigotes (high-content imaging). The series is classed as cell-based, Leishmania infantum. The following applies: 50 μM, amastigotes; for inhibition at 50 µM: Leishmania infantum, read-out: % inh. L. infantum (50 μM). On the procedure:
[…] THP-1 cells were plated onto 384-well plates in Roswell Park Memorial Institute (RPMI) 1640 medium, Hyclone, GE Healthcare Life Sciences (Issaquah, WA, USA) containing 50 ng/mL phorbol 12-myristate 13-acetate (PMA, Sigma-Aldrich, Saint Louis, MS, USA), and incubated for 48 h. Then, 6 day-old promastigotes were added, at a ratio of 50 parasites per each THP-1 cell seeded earlier. After 24 h of infection, negative controls (0.5% DMSO), positive controls (10 μM amphotericin B) or compounds were added to the plate. Assay plates were incubated for 48 h, and then fixed with 4% paraformaldehyde and stained with Draq 5. The Operetta high-content automated imaging system was used to acquire images and the Harmony Software was optimized to quantify the host cell number, the infection ratio and the number of parasites per infected cell. The ratio between infected cells and total number of cells is then calculated, and defined as the Infection Ratio (IR). The raw data for IR values was normalized to negative—DMSO (mock)-treated infected cells—and positive (non-infected cells) controls to determine the normalized antiparasitic activity.

The target of series [2] is T1, CYP3A4 (Homo sapiens, UniProt P08684).
T1 construct: purchased Promega; host or cells: baculovirus-infected insect cells
T1 sequence (P08684 whole entry): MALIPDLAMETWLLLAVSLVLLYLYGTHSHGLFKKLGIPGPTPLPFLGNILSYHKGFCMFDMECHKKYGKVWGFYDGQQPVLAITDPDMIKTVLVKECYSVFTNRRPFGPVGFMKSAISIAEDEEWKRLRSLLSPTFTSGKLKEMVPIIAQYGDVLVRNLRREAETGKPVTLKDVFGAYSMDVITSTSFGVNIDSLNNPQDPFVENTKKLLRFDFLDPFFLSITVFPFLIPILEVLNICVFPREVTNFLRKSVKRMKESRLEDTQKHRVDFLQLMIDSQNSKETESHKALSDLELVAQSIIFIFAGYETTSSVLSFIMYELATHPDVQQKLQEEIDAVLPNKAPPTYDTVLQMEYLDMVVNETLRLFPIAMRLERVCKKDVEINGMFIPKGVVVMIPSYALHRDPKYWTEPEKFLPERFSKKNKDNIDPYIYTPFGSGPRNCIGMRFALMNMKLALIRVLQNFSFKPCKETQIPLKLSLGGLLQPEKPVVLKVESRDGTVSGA
Description: Cytochrome P450 3A4 assay (P450-Glo). The series is classed as in vitro ADME. The settings on record: for inhibition at 10 µM: human. The text has this:
(§1) These assays made use of the PromegaP450-Glo™ (Madison, AL, USA) assay platform. Each CYP450 assay includes microsomal preparations of cytochromes from baculovirus-infected insect cells.

Series [3] is described as follows: Cytotoxicity against THP-1 macrophages (MTT). It is filed as cell-based. The following applies: human, THP-1-derived macrophages; THP-1 macrophage-like cells; NOAEL = no observed adverse effect level; read-out: CC50 ± SD or NOAEL. On the procedure:
The effect of compounds 1–3 on THP-1-derived macrophages was assessed by the colorimetric (MTT) assay (3-(4,5-dimethylthiazol-2-yl)-2,5-diphenyl tetrazolium bromide).

The target of series [4] is T2, CYP2C19 (Homo sapiens, UniProt P33261).
T2 construct: purchased Promega; host or cells: baculovirus-infected insect cells
T2 sequence (P33261 whole entry): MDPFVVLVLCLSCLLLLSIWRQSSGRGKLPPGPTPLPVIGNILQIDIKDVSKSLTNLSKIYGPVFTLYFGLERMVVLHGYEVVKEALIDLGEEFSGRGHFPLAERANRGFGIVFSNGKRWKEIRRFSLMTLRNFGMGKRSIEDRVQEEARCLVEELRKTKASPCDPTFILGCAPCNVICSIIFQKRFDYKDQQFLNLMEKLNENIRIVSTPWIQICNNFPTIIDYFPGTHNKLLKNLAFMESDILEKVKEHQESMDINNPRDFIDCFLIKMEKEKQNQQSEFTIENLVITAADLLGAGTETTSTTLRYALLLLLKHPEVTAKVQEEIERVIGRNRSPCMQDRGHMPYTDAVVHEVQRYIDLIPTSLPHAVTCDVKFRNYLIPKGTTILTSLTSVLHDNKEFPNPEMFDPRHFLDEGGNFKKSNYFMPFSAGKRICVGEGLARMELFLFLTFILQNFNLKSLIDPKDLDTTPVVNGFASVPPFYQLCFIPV
Description: Cytochrome P450 2C19 assay (P450-Glo). The series is classed as in vitro ADME. The following applies: for inhibition at 10 µM: human.
Excerpt: as §1

Series [5] concerns the target T3, CYP2C9 (Homo sapiens, UniProt P11712).
T3 construct: purchased Promega; host or cells: baculovirus-infected insect cells
Description: Cytochrome P450 2C9 assay (P450-Glo). The series is classed as in vitro ADME. The following applies: for inhibition at 10 µM: human.
Excerpt: as §1

Series [6] has as its system A549 cells. As to the kind of experiment: Cytotoxicity assay against A549 cells (CellTiter-Glo). It is filed as cell-based. The settings on record: 100% = not cytotoxic, 0% = cytostatic. On the procedure:
The assays were performed using the CellTiter-Glo assay from Promega (Madison, AL, USA). The assay detects cellular adenosine triphosphate (ATP) content with the amount of ATP being directly proportional to the number of cells present. The A549 cells were obtained from DSMZ (German Collection of Microorganisms and Cell Cultures, Braunschweig, Germany) and W1-38 cells were obtained from ATCC (ATCC® CCL-75™) and were grown in Dulbecco's Modified Eagle Medium (DMEM) from Capricorn Scientific GmbH, Ebsdorfergrund, Germany with fetal bovine serum (FBS) (10% v/v) from Capricorn Scientific GmbH, Ebsdorfergrund, Germany, streptomycin (100 μg/mL) and penicillin G (100 U/mL).
On the technique in general: ATP-based viability assays read luminescence as a measure of living cells.

The test system of series [7] is T. brucei bloodstream forms. As to the kind of experiment: Activity against T. brucei bloodstream forms (resazurin-based assay). It is filed as cell-based, Trypanosoma brucei. The following applies: for EC50 / inhibition at 10 µM: bloodstream form; for EC50: dose response; for inhibition at 10 µM: read-out: % inh. T. brucei (10 μM); for selectivity index (SI): ratio between CC50 toward THP-1 and EC50 toward T. brucei. On the procedure:
The efficacy of compounds against T. brucei bloodstream forms was evaluated using a modified resazurin-based assay previously described in literature.
On the technique in general: Alamar Blue is a resazurin reagent that responds to reducing activity.

T3 sequence (P11712 whole entry): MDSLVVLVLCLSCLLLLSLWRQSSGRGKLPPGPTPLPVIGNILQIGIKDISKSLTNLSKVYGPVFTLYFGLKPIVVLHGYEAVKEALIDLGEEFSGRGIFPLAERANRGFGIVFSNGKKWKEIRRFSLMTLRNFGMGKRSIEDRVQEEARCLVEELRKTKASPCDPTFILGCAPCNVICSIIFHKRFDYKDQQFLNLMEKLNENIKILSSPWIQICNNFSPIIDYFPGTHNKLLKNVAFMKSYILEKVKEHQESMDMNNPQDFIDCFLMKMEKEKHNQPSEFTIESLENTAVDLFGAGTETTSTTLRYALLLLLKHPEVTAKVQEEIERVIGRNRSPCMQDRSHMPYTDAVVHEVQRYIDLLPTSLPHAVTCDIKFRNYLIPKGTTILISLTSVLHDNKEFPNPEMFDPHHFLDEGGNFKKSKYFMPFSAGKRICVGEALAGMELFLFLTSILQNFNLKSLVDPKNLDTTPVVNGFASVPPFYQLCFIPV

What is called IC50 is the concentration that inhibits the measured activity by half. Low values mean greater potency in that assay, high ones weaker potency in that assay. Usually CC50 stands for the concentration at which the toxic effect on the cells reaches its halfway point. Broadly, the EC50 is the concentration at which the effect is half-maximal. Higher therefore signals a need for much substance. As to `O=C1CC(c2ccc(O)cc2)Oc2ccc(O)cc21` (stereo not drawn) [Compound 2], the inhibition at 50 µM in series [1] came to 29%. The figures for the concentration for half-maximal inhibition (IC50) in series [2], in series [4] and in series [5] were greater than 100 µM, 4 µM and greater than 100 µM, respectively. Moreover, the inhibition at 10 µM in series [2] was less than 15%; in series [4], 44.5%; in series [5] it was less than 15%; in series [7] (Trypanosoma brucei), 49%. Further, the CC50 in series [3] is greater than 100 µM. The “% Cell growth A549 (10 μM)” value in series [6] was 105%. The EC50 in series [7] (Trypanosoma brucei) turned out to be 13 ± 1.82 µM; in series [7] it was 13 ± 1.8 µM. The “selectivity index (SI)” value in series [7] is “higher than 7”.
Take `O=C1CC(c2ccc(O)c(O)c2)Oc2ccc(O)cc21` (stereo not drawn) [Compound 3]: the “% inh. L. infantum (50 μM)” value in series [1] was “inactive”. Further, in series [1], the inhibition at 50 µM came out at 3%. Also, the IC50 in series [2] is 65 µM; in series [4], 5 µM; in series [5] it was 4 µM. For the same compound, the inhibition at 10 µM is less than 15% in series [2], 2.68% in series [4], less than 15% in series [5] and 14% in series [7] (Trypanosoma brucei). Besides, in series [3], the 50% cytotoxic concentration (CC50) was greater than 100 µM. For the same compound, in series [6], the “% Cell growth A549 (10 μM)” value turned out to be 124%. The EC50 in series [7] (Trypanosoma brucei) and in series [7] was 34.8 ± 1.1 µM each time.
Consider `O=C1CC(c2cccc(O)c2)Oc2ccc(O)cc21` (stereo not drawn) [Compound 1], for which the inhibition at 50 µM in series [1] was determined as 31%. Moreover, the half-maximal inhibitory concentration (IC50) in series [2] worked out at 80 µM; in series [4] it was 1 µM; in series [5], 72 µM. For the same compound, the inhibition at 10 µM in series [2] is less than 15%; in series [4], 77.2%; in series [5], less than 15%; in series [7] (Trypanosoma brucei) it was 44%. Besides, in series [3], the CC50 was greater than 100 µM. For the same compound, in series [6], the “% Cell growth A549 (10 μM)” value was 137%. In addition, the EC50 in series [7] (Trypanosoma brucei) worked out at 12.6 ± 1.69 µM; in series [7] it was 12.6 ± 1.7 µM. Besides, in series [7], the “selectivity index (SI)” value was “greater than 7”.
